Assay results: patent US12168012B2, “NLRP3 inflammasome inhibitors” (Novartis AG, priority 2018, dated 2024)

Tested on: NF-kB-dependent TNF-α secretion
Experiment: TNF-α secretion assay (counterscreen)
Assay type: cell-based
Settings: Homo sapiens; THP-1 cells, Pam3CSK4-stimulated, 3 hours, HTRF
Description: Monocytic THP-1 cells were maintained according to providers' instructions in RPMI media as described above. Undifferentiated cells were plated at 50,000 cells per well in a 384-well flat-bottom cell culture plates (Greiner, #781986), and allowed to rest overnight. Experimental compounds were prepared and added as described above. TNF-α secretion was triggered by the addition of either 1 μg/mL LPS (Sigma, #L4391) or 100 ng/mL Pam3CSK4 (Invivogen, #tlrl-pms) depending on the experiment, and cells were incubated for 3 hours. 10 μL supernatant was removed, and TNF-α levels were monitored using an HTRF assay (CisBio, #62TNFPEC) according to manufacturers' instructions. Viability was monitored as described above.
IC50 values were calculated from the plot of percentage of inhibition versus the inhibitor concentration by a logistics fit according to: y=A2+(A1−A2)/(1+(x/IC50)^p) where y is the %-inhibition at the inhibitor concentration, x. A1 is the lowest inhibition value, i.e. 0%, and A2 the maximum inhibition value, i.e. 100%. The exponent, p, is the Hill coefficient. The curve fitting was conducted with an internally developed software suite. […]

SMILES	IC50
CC(C)c1nn(CC(=O)N[C@@H]2CCCN(C3CCC3)C2)c(=O)c2cc3sc(Cl)cc3n12 [Ex 125, (R)-2-(2-Chloro-5-isopropyl-8-oxothieno[2′,3′:4,5]pyrrolo[1,2-d][1,2,4]triazin-7(8H)-yl)-N-(1-cyclobutylpiperidin-3-yl)acetamide]	> 33000 nM
CN1CCC[C@@H](NC(=O)Cn2nc(C(C)(C)O)n3c(cc4sc(Cl)cc43)c2=O)C1 [Ex 60, (R)-2-(2-Chloro-5-(2-hydroxypropan-2-yl)-8-oxothieno[2′,3′:4,5]pyrrolo[1,2-d][1,2,4]triazin-7(8H)-yl)-N-(1-methylpiperidin-3-yl)acetamide]	> 100000 nM
CC(C)c1nn(CC(=O)N[C@@H]2CCCN(C)C2)c(=O)c2cc3sc(Cl)cc3n12 [Ex 17, (R)-2-(2-Chloro-5-isopropyl-8-oxothieno[2′,3′:4,5]pyrrolo[1,2-d][1,2,4]triazin-7(8H)-yl)-N-(1-methylpiperidin-3-yl)acetamide]	> 100000 nM
CC(C)c1nn(CC(=O)Nc2cccnc2)c(=O)c2cc3sc(F)cc3n12 [Ex 5, 2-(2-Fluoro-5-isopropyl-8-oxothieno[2,3′:4,5]pyrrolo[1,2-d][1,2,4]triazin-7(8H)-yl)-N-(pyridin-3-yl)acetamide]	> 100000 nM
CC(C)c1nn(CC(=O)Nc2cccnc2)c(=O)c2cc3sc(Cl)cc3n12 [Ex 2, 2-(2-Chloro-5-isopropyl-8-oxothieno[2′,3′:4,5]pyrrolo[1,2-d][1,2,4]triazin-7(8H)-yl)-N-(pyridin-3-yl)acetamide]	> 100000 nM
CC(C)c1nn(CC(=O)NC2CCOCC2)c(=O)c2cc3sc(Cl)cc3n12 [Ex 75, 2-(2-Chloro-5-isopropyl-8-oxothieno[2′,3′:4,5]pyrrolo[1,2-d][1,2,4]triazin-7(8H)-yl)-N-(tetrahydro-2H-pyran-4-yl)acetamide]	> 100000 nM
CC(C)c1nn(CC(=O)N[C@H]2CCCN(C)C2)c(=O)c2cc3sc(Cl)cc3n12 [Ex 18, (S)-2-(2-Chloro-5-isopropyl-8-oxothieno[2′,3′:4,5]pyrrolo[1,2-d][1,2,4]triazin-7(8H)-yl)-N-(1-methylpiperidin-3-yl)acetamide]	> 100000 nM

Tested on: NLRP3 inflammasome
Experiment: IL-1β secretion assay
Assay type: cell-based
Settings: Homo sapiens, THP-1, 3 h, PMA-differentiated THP-1 cells, 15 μM nigericin, HTRF
Description: 10 μL supernatant was removed, and IL-1p levels were monitored using an HTRF assay (CisBio, #62IL1PEC) according to manufacturers' instructions. Viability and pyroptosis was monitored with the addition of PrestoBlue cell viability reagent (Life Technologies, #A13261) directly to the cell culture plate.
IC50 values were calculated from the plot of percentage of inhibition versus the inhibitor concentration by a logistics fit according to: y=A2+(A1−A2)/(1+(x/IC50)^p) where y is the %-inhibition at the inhibitor concentration, x. A1 is the lowest inhibition value, i.e. 0%, and A2 the maximum inhibition value, i.e. 100%. The exponent, p, is the Hill coefficient. The curve fitting was conducted with an internally developed software suite.
NLRP3-dependent IL-1β secretion was stimulated in PMA-differentiated THP-1 cells by the addition of nigericin, and cytokines were measured in the […] after 3 hours. As discussed above, activation of the NLRP3 inflammasome requires both an NF-kB-dependent priming step and the addition of a NLRP3 activator.

SMILES	IC50
O=C(Cn1nc(C2CC2)n2c(cc3sc(Cl)cc32)c1=O)N[C@H]1CC[C@H](C(=O)O)CC1 [Ex 121, (1r,4r)-4-(2-(2-Chloro-5-cyclopropyl-8-oxothieno[2′,3′:4,5]pyrrolo[1,2-d][1,2,4]triazin-7(8H)-yl)acetamido)cyclohexane-1-carboxylic acid]	44.1 nM
CC(C)c1nn(CC(=O)N[C@H]2CC[C@H](C(=O)O)CC2)c(=O)c2cc3sc(F)cc3n12 [Ex 120, (1r,4r)-4-(2-(2-Fluoro-5-isopropyl-8-oxothieno[2′,3′:4,5]pyrrolo[1,2-d][1,2,4]triazin-7(8H)-yl)acetamido)cyclohexane-1-carboxylic acid]	17.2 nM
CC(C)c1nn(CC(=O)Nc2ncncc2F)c(=O)c2cc3sc(Cl)cc3n12 [Ex 15, 2-(2-Chloro-5-isopropyl-8-oxothieno[2′,3′:4,5]pyrrolo[1,2-d][1,2,4]triazin-7(8H)-yl)-N-(5-fluoropyrimidin-4-yl)acetamide]	5.4 nM
CC(C)c1nn(CC(=O)N[C@@H]2CC[C@@H](N)C2)c(=O)c2cc3sc(Cl)cc3n12 [Ex 22, N-((1R,3R)-3-Aminocyclopentyl)-2-(2-chloro-5-isopropyl-8-oxothieno[2′,3′:4,5]pyrrolo[1,2-d][1,2,4]triazin-7(8H)-yl)acetamide]	408 nM
CC(C)c1nn(CC(=O)NCCC(C)(C)O)c(=O)c2cc3sc(F)cc3n12 [Ex 84, 2-(2-Fluoro-5-isopropyl-8-oxothieno[2′,3′:4,5]pyrrolo[1,2-d][1,2,4]triazin-7(8H)-yl)-N-(3-hydroxy-3-methylbutyl)acetamide]	12.9 nM
CC(C)c1nn(CC(=O)N[C@]2(C)C[C@@H](O)C2)c(=O)c2cc3sc(Cl)cc3n12 [Ex 23, 2-(2-Chloro-5-isopropyl-8-oxothieno[2′,3′:4,5]pyrrolo[1,2-d][1,2,4]triazin-7(8H)-yl)-N-((1r,3r)-3-hydroxy-1-methylcyclobutyl)acetamide]	452 nM
CC(C)(O)CCNC(=O)Cn1nc(C(C)(C)O)n2c(cc3sc(Cl)cc32)c1=O [Ex 80]	60.7 nM
CC(C)c1nn(CC(=O)N[C@H]2C[C@@](C)(O)C2)c(=O)c2cc3scnc3n12 [Ex 93, N-((1s,3s)-3-Hydroxy-3-methylcyclobutyl)-2-(5-isopropyl-8-oxothiazolo[5′,4′:4,5]pyrrolo[1,2-d][1,2,4]triazin-7(8H)-yl)acetamide]	0.8 nM
CC(C)c1nn(CC(=O)Nc2ncncc2Cl)c(=O)c2cc3sc(Cl)cc3n12 [Ex 16, 2-(2-Chloro-5-isopropyl-8-oxothieno[2′,3′:4,5]pyrrolo[1,2-d][1,2,4]triazin-7(8H)-yl)-N-(5-chloropyrimidin-4-yl)acetamide]	57.3 nM
CC(C)c1nn(CC(=O)N[C@@H]2CCCN(CCOC(F)(F)F)C2)c(=O)c2cc3sc(Cl)cc3n12 [Ex 78, (R)-2-(2-Chloro-5-isopropyl-8-oxothieno[2′,3′:4,5]pyrrolo[1,2-d][1,2,4]triazin-7(8H)-yl)-N-(1-(2-(trifluoromethoxy)ethyl)piperidin-3-yl)acetamide]	71.4 nM
CC(C)c1nn(CC(=O)N[C@H]2C[C@H](O)C2)c(=O)c2cc3sc(Cl)cc3n12 [Ex 108, 2-(2-Chloro-5-isopropyl-8-oxothieno[2′,3′:4,5]pyrrolo[1,2-d][1,2,4]triazin-7(8H)-yl)-N-((1r,3r)-3-hydroxycyclobutyl)acetamide]	101 nM
Cc1n[nH]c2cc(NC(=O)Cn3nc(C(C)(C)O)n4c(cc5sc(Cl)cc54)c3=O)ccc12 [Ex 66, 2-(2-Chloro-5-(2-hydroxypropan-2-yl)-8-oxothieno[2′,3′:4,5]pyrrolo[1,2-d][1,2,4]triazin-7(8H)-yl)-N-(3-methyl-1H-indazol-6-yl)acetamide]	7.8 nM
CC(C)c1nn(CC(=O)N[C@H]2C[C@@](C)(O)C2)c(=O)c2cc3sc(F)cc3n12 [Ex 87, 2-(2-Fluoro-5-isopropyl-8-oxothieno[2′,3′:4,5]pyrrolo[1,2-d][1,2,4]triazin-7(8H)-yl)-N-((1s,3s)-3-hydroxy-3-methylcyclobutyl)acetamide]	1 nM
CC(C)c1nn(CC(=O)Nc2cc(C(F)F)ncn2)c(=O)c2cc3sc(Cl)cc3n12 [Ex 112, 2-(2-Chloro-5-isopropyl-8-oxothieno[2′,3′:4,5]pyrrolo[1,2-d][1,2,4]triazin-7(8H)-yl)-N-(6-(difluoromethyl)pyrimidin-4-yl)acetamide]	253 nM
CC(C)c1nn(CC(=O)N[C@H]2C[C@](C)(O)C2)c(=O)c2cc3sc(Cl)cc3n12 [Ex 71, 2-(2-Chloro-5-isopropyl-8-oxothieno[2′,3′:4,5]pyrrolo[1,2-d][1,2,4]triazin-7(8H)-yl)-N-((1r,3r)-3-hydroxy-3-methylcyclobutyl)acetamide]	15.9 nM
CC(C)(O)c1nn(CC(=O)Nc2ccc3cn[nH]c3c2)c(=O)c2cc3sc(Cl)cc3n12 [Ex 65, 2-(2-Chloro-5-(2-hydroxypropan-2-yl)-8-oxothieno[2′,3′:4,5]pyrrolo[1,2-d][1,2,4]triazin-7(8H)-yl)-N-(1H-indazol-6-yl)acetamide]	6.2 nM
CC(C)c1nn(CC(=O)NC[C@@H](C)O)c(=O)c2cc3sc(F)cc3n12 [Ex 85, (R)-2-(2-Fluoro-5-isopropyl-8-oxothieno[2′,3′:4,5]pyrrolo[1,2-d][1,2,4]triazin-7(8H)-yl)-N-(2-hydroxypropyl)acetamide]	130 nM
CCN1CCC[C@@H](NC(=O)Cn2nc(C(C)(C)O)n3c(cc4sc(Cl)cc43)c2=O)C1 [Ex 132, (R)-2-(2-Chloro-5-(2-hydroxypropan-2-yl)-8-oxothieno[2′,3′:4,5]pyrrolo[1,2-d][1,2,4]triazin-7(8H)-yl)-N-(1-ethylpiperidin-3-yl)acetamide]	0.8 nM
CC(C)c1nn(CC(=O)N[C@H]2CC[C@H](C(=O)O)CC2)c(=O)c2cc3scnc3n12 [Ex 119, (1r,4r)-4-(2-(5-Isopropyl-8-oxothiazolo[5′,4′:4,5]pyrrolo[1,2-d][1,2,4]triazin-7(8H)-yl)acetamido)cyclohexane-1-carboxylic acid]	40.5 nM
CC(C)c1nn(CC(=O)N[C@@H]2CCC(=O)N(C)C2)c(=O)c2cc3scnc3n12 [Ex 97, (R)-2-(5-Isopropyl-8-oxothiazolo[5′,4′:4,5]pyrrolo[1,2-d][1,2,4]triazin-7(8H)-yl)-N-(1-methyl-6-oxopiperidin-3-yl)acetamide]	18.3 nM
CC(C)c1nn(CC(=O)NCCC2(O)CC2)c(=O)c2cc3sc(Cl)cc3n12 [Ex 110, 2-(2-Chloro-5-isopropyl-8-oxothieno[2′,3′:4,5]pyrrolo[1,2-d][1,2,4]triazin-7(8H)-yl)-N-(2-(1-hydroxycyclopropyl)ethyl)acetamide]	115 nM
